Data on one compound can be found in US20120277517A1, “Formulation and Methods for Enhanced Interventional Image-Guided Therapy of Cancer” (The Johns Hopkins University, priority 2011, published 2012).

This series relates to Hep3B cells. As to the kind of experiment: Intratumoral injection with or without AMF hyperthermia in mice with subcutaneous Hep3B tumors. In kind it is in vivo, mouse. Conditions: may be attributed to hyperthermia.

Source text: In another exemplary experiment, Hep3B cells were implanted by subcutaneous injection of 3×10^6 Hep3B cells suspended in PBS into the right flank of each mouse that was randomly assigned into 2 main groups (heated and unheated) that were further divided into three subgroups. When tumors reached 100 mm^3, these received intratumoral injections of T-C formulation, BNF particles alone, or PBS (3 subgroups). The heated group (9 mice) received AMF hyperthermia. Two mice from each subgroup were euthanized 24 hours following treatment, and the remaining one was euthanized when tumor in the PBS group reached 2000 mm^3.
For AMF exposure, each mouse was placed in a chamber constructed from a standard polypropylene 50-mL conical centrifuge tube that was positioned in the center of the solenoid coil. Prior to AMF therapy, each mouse received intraperitoneal injections of ketamine/xylazine (anesthesia) at an approximate dose of a 200-μL injection. Each mouse was placed in the coil for 30 min and exposed to one of the following AMF amplitudes: 0, 24, or 60 kA/m. […] During AMF exposure, mice were placed into the AMF inductor coil and therefore exposed to maximum magnetic field, corresponding to the measured (by field probe) field. Rectal and tumor temperatures were measured at one-second intervals for each mouse exposed to AMF using fiber optic temperature probes.

Turning to `COc1cccc2c1C(=O)c1c(O)c3c(c(O)c1C2=O)C[C@@](O)(C(=O)CO)C[C@@H]3O[C@H]1C[C@H](N)[C@H](O)[C@H](C)O1` [doxorubicin], the degradation of doxorubicin is recorded as 7-8%.
